According to patent US7012095B2, “Compounds for modulating cell proliferation” (HSC Research and Development Limited, priority 2000, dated 2006):

What was measured:
[1] = test system: Z119 acute lymphoblastic leukemia cells; test: In vitro purging of Z119 acute lymphoblastic leukemia; format: cell-based, human; conditions: 50 μM, 2.5 hours exposure; FIG. 15
Experimental: (§1) For the purging assay, the cells were resuspended in complete medium with or without CR4 as indicated and incubated at 37° C., 5% CO2 for 0–5 hours. Cells were then washed thoroughly with medium to remove the CR4, resuspended and plated in 1 ml volumes, in the absence of exogenous growth factors, into 35 mm petri dishes (Nunc, Gibco) containing alpha MEM (Gibco) plus 20% FCS (Cansera Rexdale, ON.) in 0.9% (vol/vol) methylcellulose (Fluka, Switzerland). Cultures were set at 37° C., 5% CO2 in a humidified atmosphere. Colonies consisting of more than 20 cells were counted at 9 days or earlier using an inverted microscope.

[2] = test system: normal bone marrow cells; test: CFU-GEMM assay, normal bone marrow differentiation in culture; format: cell-based
Experimental: The CFU-GEMM assay was performed according to Fauser and Messner (1978, Blood, 52(6) 143–8) and Messner and Fausser (1980, Blut, 41(5) 327–33) with some variations. In brief, heparinized bone marrow cells were layered over Percoll (1.077 gm/ml) (Pharmacia Fine Chemical, Piscataway N.J.) and centrifuged at 400 g at 4° C. for 10 minutes to remove neutrophils and RBCs. The fractionated BM cells at 2×10^5 cells/ml were cultured in IMDM (OCI, Toronto) containing 0.9% (vol/vol) methylcellulose supplemented with 30% FCS (Cansera Rexdale, ON.) or normal human plasma, a cocktail of cytokines containing G-CSF (10 ng/ml, Amgen), IL-3 (40 U/ml, Immunex), MGF (50 ng/ml, Immunex), Erythropoietin (2 u/ml, Epprex) or TPO (10 ng/ml, Amgen), 5×10^−5M β-2-mercaptoethanol and the specified concentration of CR4. The culture mixture was plated in 1 ml volumes into 35 mm petri dishes and incubated at 37° C., 5% CO2 in a humidified atmosphere. All cultures were evaluated at 14 days for the number of BFU-E colonies (defined as aggregates of more than 500 hemoglobinized cells or, 3 or more erythroid subcolonies), CFU-GM colonies (defined as granulocyte or monocyte-macrophage cells or both), CFU-Meg colonies (comprising 4 or more megakaryocytes) and CFU-GEMM colonies (a mixed population comprising of all elements).
The CFU-GEMM assay was performed according to Fauser and Messner (1978, Blood, 52(6) 1243–8) and Messner and Fausser (1980, Blut, 41(5) 327–33) with some variations. In brief, heparinized bone marrow cells were layered over Percoll (1.077 gm/ml) (Pharmacia Fine Chemical, Piscataway N.J.) and centrifuged at 400 g at 4° C. for 10 minutes to remove neutrophils and RBCs. […] All cultures were evaluated at 14 days for the number of BFU-E colonies (defined as aggregates of more than 500 hemaglobinized cells or, 3 or more erythroid subcolonies) and CFU-C colonies (defined as granulocyte or monocyte-macrophage cells or both).
The CFU-GEMM assay was performed according to Fauser and Messner (1978, Blood, 52(6) 1243–8) and Messner and Fausser (1980, Blut, 41(5) 327–33) with some variations (British Journal of Haematology, 1992, 80, p40–48). […] All cultures were evaluated at 14 days for the number of BFU-E colonies (defined as aggregates of more than 500 hemoglobinized cells or, 3 or more erythroid subcolonies) and CFU-C colonies (defined as granulocyte or monocyte-macrophage cells or both).

[3] = test system: Philadelphia positive ALL, AML and lymphoma; test: In vitro / ex vivo purging assays, summary statements; format: cell-based
[4] = Retention in blood after I.V. injection; format: in vivo
[5] = test system: Ly-MN lymphoma cells; test: Killing of Ly-MN lymphoma cells in colony culture; format: cell-based; conditions: colonies at 5 days; FIG. 5
Experimental: Ly-MN cells were plated in 1 ml volumes, in the absence of exogenous growth factors, into 35 mm petri dishes (Nunc, Gibco) containing IMDM (OCI, Toronto) plus 20% human cord blood plasma in 0.9% (vol/vol) methylcellulose (Fluka, Switzerland) and the indicated concentrations of CR4. Cultures were set at 37° C., 5% CO2 in a humidified atmosphere. Colonies consisting of more than 20 cells were counted at 5 days or earlier using an inverted microscope.

[6] = test system: OCI-AML-3 acute myeloid leukemia cells; test: In vitro purging of OCI-AML-3 cells; format: cell-based; conditions: 2.5–5 hours exposure, FIG. 17
Experimental: as §1, with “remove” for “remove the”, “ml volumes at 5×10^3 cells/ml,” for “ml volumes,”, “plus 10%” for “plus 20%”, “at 5” for “at 9”

Structure (SMILES): N#C/C(=C\C=C\c1ccc(O)c(O)c1)C(=O)NCc1ccccc1 [CR4, (E,E)-2-(Benzylamido)-3-(3,4-dihydroxystyryl)acrylonitrile]
- inhibition of Z119 cells [1]: complete inhibition
- effect upon normal cells ([2]; at concentrations equivalent to those active on the cancer cells of the same example): no effect
- toxicity to normal cells ([2]; until concentrations of 10–20 μM or greater were achieved): minimal toxicity
- efficacy as ex vivo purging agents [3]: effective
- time still detectable in the blood after I.V. injection [4]: ≥ 30 min
- concentration by which inhibition was effected [5]: 2.5 µM
- killing of OCI-AML-3 cells ([6]; 25 μM): significant killing
- killing of OCI-AML-3 cells ([6]; 50 μM): significant killing
